Converted amounts (≈) assume the structure as drawn.

The first assay deals with Mycobacterium tuberculosis. In words: Antimycobacterial activity against Mycobacterium tuberculosis H37Rv ATCC 27294 after 14 days by resazurin reduction microplate assay. Conditions: H37Rv ATCC 27294, 336 h. The assay is classed as functional. Background: The colour change of resazurin is a common sign of viable cells or microbes.
As for `CC(C)C[C@H](NC(=O)N[C@@H](Cc1c[nH]c2ccccc12)C(=O)O)C(=O)N[C@H](C(=O)NC[C@H]1C[C@@H](O)[C@H](n2ccc(=O)[nH]c2=O)O1)[C@H](C)N(C)C(=O)[C@@H](N)CCCCN`, the MIC50 came to 1.35 µM (≈ 1.1 µg/mL). This counts as single-digit micromolar.

`CC(C)C[C@H](NC(=O)N[C@@H](Cc1c[nH]c2ccccc12)C(=O)O)C(=O)N[C@H](C(=O)NC[C@H]1C[C@@H](O)[C@H](n2ccc(=O)[nH]c2=O)O1)[C@H](C)N(C)C(=O)[C@@H](N)Cc1ccc2ccccc2c1` had an MIC50 of 3 µM (≈ 2.65 µg/mL).

Take `C[C@@H]([C@H](NC(=O)[C@H](CCc1ccccc1)NC(=O)N[C@@H](Cc1c[nH]c2ccccc12)C(=O)O)C(=O)NC[C@H]1C[C@@H](O)[C@H](n2ccc(=O)[nH]c2=O)O1)N(C)C(=O)CN`: the MIC50 was 1.08 µM (≈ 0.853 µg/mL).

Consider `C[C@@H]([C@H](NC(=O)[C@H](CCCCN)NC(=O)N[C@@H](Cc1c[nH]c2ccccc12)C(=O)O)C(=O)NC[C@H]1C[C@@H](O)[C@H](n2ccc(=O)[nH]c2=O)O1)N(C)C(=O)CN`, for which the MIC50 came out at 0.7 µM (≈ 0.53 µg/mL). Compared with the last compound, the MIC50 is about 1.5-fold lower.

The compound `CC(C)C[C@H](NC(=O)N[C@@H](Cc1c[nH]c2ccccc12)C(=O)O)C(=O)N[C@H](C(=O)NC[C@H]1C[C@@H](O)[C@H](n2ccc(=O)[nH]c2=O)O1)[C@H](C)N(C)C(=O)[C@@H](N)Cc1ccccc1` gave an MIC50 of 4.05 µM (≈ 3.37 µg/mL).

With `C[C@@H]([C@H](NC(=O)[C@@H](NC(=O)N[C@@H](Cc1c[nH]c2ccccc12)C(=O)O)C1CCCCC1)C(=O)NC[C@H]1C[C@@H](O)[C@H](n2ccc(=O)[nH]c2=O)O1)N(C)C(=O)CN`, the MIC50 was determined as 0.51 µM (≈ 0.392 µg/mL).

In turn, `C[C@@H]([C@H](NC(=O)[C@H](CC1CCCCC1)NC(=O)N[C@@H](Cc1c[nH]c2ccccc12)C(=O)O)C(=O)NC[C@H]1C[C@@H](O)[C@H](n2ccc(=O)[nH]c2=O)O1)N(C)C(=O)CN` had an MIC50 of 0.08 µM (≈ 0.0625 µg/mL).

As to `CC[C@H](C)[C@H](NC(=O)N[C@@H](Cc1c[nH]c2ccccc12)C(=O)O)C(=O)N[C@H](C(=O)NC[C@H]1C[C@@H](O)[C@H](n2ccc(=O)[nH]c2=O)O1)[C@H](C)N(C)C(=O)CN`, the MIC50 was determined as 0.93 µM (≈ 0.69 µg/mL).

As to `C[C@@H]([C@H](NC(=O)[C@H](Cc1ccccc1)NC(=O)N[C@@H](Cc1c[nH]c2ccccc12)C(=O)O)C(=O)NC[C@H]1C[C@@H](O)[C@H](n2ccc(=O)[nH]c2=O)O1)N(C)C(=O)CN`, the MIC50 stood at 0.26 µM (≈ 0.202 µg/mL).

In the case of `C[C@@H]([C@H](NC(=O)[C@H](Cc1ccc(O)cc1)NC(=O)N[C@@H](Cc1c[nH]c2ccccc12)C(=O)O)C(=O)NC[C@H]1C[C@@H](O)[C@H](n2ccc(=O)[nH]c2=O)O1)N(C)C(=O)CN`, the MIC50 is 0.52 µM (≈ 0.412 µg/mL).

Compound `CC(C)C[C@H](NC(=O)N[C@@H](Cc1c[nH]c2ccccc12)C(=O)O)C(=O)N[C@H](C(=O)NC[C@H]1C[C@@H](O)[C@H](n2ccc(=O)[nH]c2=O)O1)[C@H](C)N(C)C(=O)[C@@H](N)CCCN` registered an MIC50 of 0.95 µM (≈ 0.759 µg/mL).

Turning to `C[C@@H]([C@H](NC(=O)[C@@H](NC(=O)N[C@@H](Cc1c[nH]c2ccccc12)C(=O)O)c1ccccc1)C(=O)NC[C@H]1C[C@@H](O)[C@H](n2ccc(=O)[nH]c2=O)O1)N(C)C(=O)CN`, the MIC50 was above 6.26 µM.

In the case of `C[C@@H]([C@H](NC(=O)[C@H](Cc1c[nH]c2ccccc12)NC(=O)N[C@@H](Cc1c[nH]c2ccccc12)C(=O)O)C(=O)NC[C@H]1C[C@@H](O)[C@H](n2ccc(=O)[nH]c2=O)O1)N(C)C(=O)CN`, the MIC50 was 0.44 µM (≈ 0.359 µg/mL).

In turn, `CC(C)C[C@H](NC(=O)N[C@@H](Cc1c[nH]c2ccccc12)C(=O)O)C(=O)N[C@H](C(=O)NC[C@H]1C[C@@H](O)[C@H](n2ccc(=O)[nH]c2=O)O1)[C@H](C)N(C)C(=O)CN` had an MIC50 of 0.63 µM (≈ 0.467 µg/mL).

Regarding `C[C@@H]([C@H](NC(=O)[C@H](Cc1ccc(C(F)(F)F)cc1)NC(=O)N[C@@H](Cc1c[nH]c2ccccc12)C(=O)O)C(=O)NC[C@H]1C[C@@H](O)[C@H](n2ccc(=O)[nH]c2=O)O1)N(C)C(=O)CN`, the MIC50 is 0.2 µM (≈ 0.169 µg/mL).

With `CC(C)C[C@H](NC(=O)N[C@@H](Cc1c[nH]c2ccccc12)C(=O)O)C(=O)N[C@H](C(=O)NC[C@H]1C[C@@H](O)[C@H](n2ccc(=O)[nH]c2=O)O1)[C@H](C)N(C)C(=O)[C@@H](N)[C@@H](C)O`, the MIC50 amounted to 1.35 µM (≈ 1.06 µg/mL). Against the preceding compound, the MIC50 is about 6.8-fold higher.

As to `CC(C)[C@H](NC(=O)N[C@@H](Cc1c[nH]c2ccccc12)C(=O)O)C(=O)N[C@H](C(=O)N/C=C1/C[C@@H](O)[C@H](n2ccc(=O)[nH]c2=O)O1)[C@H](C)N(C)C(=O)[C@@H](N)Cc1cccc(O)c1`, 9.5 µM (≈ 7.9 µg/mL) was the least that counted as inhibitory (MIC).

`CCCCC[C@H](NC(=O)N[C@@H](Cc1c[nH]c2ccccc12)C(=O)O)C(=O)N[C@H](C(=O)NC[C@H]1C[C@@H](O)[C@H](n2ccc(=O)[nH]c2=O)O1)[C@H](C)N(C)C(=O)CN`: the MIC50 worked out at 0.51 µM (≈ 0.385 µg/mL).

In turn, `C[C@@H](O)[C@H](NC(=O)N[C@@H](Cc1c[nH]c2ccccc12)C(=O)O)C(=O)N[C@H](C(=O)NC[C@H]1C[C@@H](O)[C@H](n2ccc(=O)[nH]c2=O)O1)[C@H](C)N(C)C(=O)CN` gave an MIC50 of 2.8 µM (≈ 2.04 µg/mL).

For `CC(C)C[C@H](NC(=O)N[C@@H](Cc1c[nH]c2ccccc12)C(=O)O)C(=O)N[C@H](C(=O)NC[C@H]1C[C@@H](O)[C@H](n2ccc(=O)[nH]c2=O)O1)[C@H](C)N(C)C(=O)[C@@H](N)C1CCCCC1`, the MIC50 was found to be 1.1 µM (≈ 0.906 µg/mL).

For the compound `CC(C)C[C@H](NC(=O)N[C@@H](Cc1c[nH]c2ccccc12)C(=O)O)C(=O)N[C@H](C(=O)NC[C@H]1C[C@@H](O)[C@H](n2ccc(=O)[nH]c2=O)O1)[C@H](C)N(C)C(=O)[C@@H](N)CC1CCCCC1`, the MIC50 is 1 µM (≈ 0.838 µg/mL).

For the compound `CC(C)C[C@H](NC(=O)N[C@@H](Cc1c[nH]c2ccccc12)C(=O)O)C(=O)N[C@H](C(=O)NC[C@H]1C[C@@H](O)[C@H](n2ccc(=O)[nH]c2=O)O1)[C@H](C)N(C)C(=O)[C@@H](N)Cc1cccc(O)c1`, the MIC50 was 0.3 µM (≈ 0.254 µg/mL).

System in another assay: not listed separately
In words: Inhibition of Campylobacter concisus phosphoglycosyl transferase Pg1C.
Settings: not given
`COc1ccc2cc(-c3cn(CC(=O)N[C@@H](CCC(=O)O)C(=O)NC[C@H]4O[C@@H](n5ccc(=O)[nH]c5=O)[C@H](O)[C@@H]4O)nn3)ccc2c1`: half-maximal inhibition (IC50) was put at 116 µM.

Turning to `O=C(O)CC[C@H](NC(=O)Cn1cc(-c2cccc(F)c2)nn1)C(=O)NC[C@H]1O[C@@H](n2ccc(=O)[nH]c2=O)[C@H](O)[C@@H]1O`, half-maximal inhibition (IC50) was put at 72 µM.

The test system of a further assay is Staphylococcus aureus. In words: Inhibition of MraY in Staphylococcus aureus at 1 mM by fluorescence assay relative to control.
Settings: not given
Turning to `Cc1cn([C@H]2C[C@H](O)[C@@H](C[C@H](NCCCNC(=O)[C@H](CC(C)C)NC(=O)[C@H](CCCCN)NC(=O)N[C@H](C(=O)O)C(C)C)C(=O)O)O2)c(=O)[nH]c1=O`, the inhibition is 38%.

The compound `CC(C)C[C@H](NC(=O)[C@H](CCCCN)NC(=O)N[C@H](C(=O)O)C(C)C)C(=O)NCCCN[C@@H](C[C@H]1O[C@@H](n2cc(F)c(=O)[nH]c2=O)[C@H](O)[C@@H]1O)C(=O)O` registered an inhibition of 40%.

Target in a further assay: not listed separately
Nature of the assay: Inhibition of Campylobacter jejuni phosphoglycosyl transferase Pg1D.
Settings: not given
`O=C(Cn1cc(-c2cccc(F)c2)nn1)NC[C@H]1O[C@@H](n2ccc(=O)[nH]c2=O)[C@H](O)[C@@H]1O`: the IC50 is 35 µM.

Target in a further assay: not listed separately
Nature of the assay: Inhibition of Clostridium difficile phosphoglycosyl transferase. Details: species or system Clostridioides difficile.
Settings: not given
In the case of `O=c1ccn([C@@H]2O[C@H](CNc3c(NCc4cccc(F)c4)c(=O)c3=O)[C@@H](O)[C@H]2O)c(=O)[nH]1`, it took 174 µM to reach half-maximal inhibition (IC50).

System in the next assay: not listed separately
In words: Inhibition of MraY in Staphylococcus aureus by fluorescence assay.
Settings: not given
In turn, `CC(C)C[C@H](NC(=O)[C@H](CCCCN)NC(=O)N[C@H](C(=O)O)C(C)C)C(=O)NCCCN[C@@H](C[C@H]1O[C@@H](n2ccc(=O)[nH]c2=O)C[C@@H]1O)C(=O)O` had an IC50 of 4.6 µM.

Regarding `CC(C)C[C@H](NC(=O)[C@H](CCCCN)NC(=O)N[C@H](C(=O)O)C(C)C)C(=O)NCCCN[C@@H](C[C@H]1O[C@@H](n2ccc(=O)[nH]c2=O)[C@H](O)[C@@H]1O)C(=O)O`, the midpoint of inhibition, the IC50, lay at 2.5 µM.

For `Cc1cn([C@H]2C[C@H](O)[C@@H](C[C@H](NCCCNC(=O)[C@H](CC(C)C)NC(=O)[C@H](CCCCN)NC(=O)N[C@H](C(=O)O)C(C)C)C(=O)O)O2)c(=O)[nH]c1=O`, the IC50 is above 100 µM.

`CC(C)C[C@H](NC(=O)[C@H](CCCCN)NC(=O)N[C@H](C(=O)O)C(C)C)C(=O)NCCCN[C@@H](C[C@H]1O[C@@H](n2cc(F)c(=O)[nH]c2=O)[C@H](O)[C@@H]1O)C(=O)O` yielded a concentration for half-maximal inhibition (IC50) above 100 µM.

Regarding `CC(C)C[C@H](NC(=O)[C@H](CCCCN)NC(=O)N[C@H](C(=O)O)C(C)C)C(=O)NCCCN[C@@H](C[C@H]1O[C@@H](N2CCC(=O)NC2=O)[C@H](O)[C@@H]1O)C(=O)O`, the midpoint of inhibition, the IC50, lay at 27 µM.

On to `CC(C)[C@H](NC(=O)N[C@@H](CCCCN)C(=O)N[C@@H](C)C(=O)NCCCN[C@@H](C[C@H]1O[C@@H](n2ccc(=O)[nH]c2=O)[C@H](O)[C@@H]1O)C(=O)O)C(=O)O`, for which the IC50 came to 95 µM. Against the preceding compound, the IC50 is about 3.5-fold higher.

Regarding `CC(C)C[C@H](NC(=O)[C@H](C)NC(=O)N[C@H](C(=O)O)C(C)C)C(=O)NCCCN[C@@H](C[C@H]1O[C@@H](n2ccc(=O)[nH]c2=O)[C@H](O)[C@@H]1O)C(=O)O`, inhibition was half-maximal at 14 µM (IC50). This IC50 lies about 6.8-fold lower than the previous one.

`CC(C)C[C@H](NC(=O)[C@H](CCCCN)NC(=O)N[C@@H](C)C(=O)O)C(=O)NCCCN[C@@H](C[C@H]1O[C@@H](n2ccc(=O)[nH]c2=O)[C@H](O)[C@@H]1O)C(=O)O` registered an IC50 of 21 µM. Compared with the last compound, the IC50 is about 1.5-fold higher.

What is called MIC50 is the lowest concentration that inhibits either 50% of growth or 50% of the strains tested, depending on the study. A word on the MIC: it is the smallest concentration in the dilution series that meets the test's criterion for growth inhibition. Lower therefore signals greater potency. What is called IC50 is the midpoint of a concentration-inhibition curve. As usually defined, the inhibition is the change of the read-out against control, counted positive when it falls.

The values are drawn from ChEMBL document CHEMBL4725382, “Uridine natural products: Challenging targets and inspiration for novel small molecule inhibitors” (Bioorg Med Chem, 2020).
